Laboratory results taken from ChEMBL document CHEMBL1201862, “PubChem BioAssay data set” (2004).
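Each compound was tested at five concentrations against cells in 96-well plates for 48 hours. GI50 = concentration required for 50% inhibition of growth.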 The source made the active and inactive calls. Rule as the data show it: active = GI50 up to about 1.1 µM and inactive = higher.

How the values were obtained:
Assay in all cases: inhibition of tumour cell growth, NCI panel, 48 h
HCT-15 = test system: HCT-15
A549 = test system: A549
SW-620 = test system: SW-620
UO-31 = test system: UO-31
HT-29 = test system: HT-29
SN12C = test system: SN12C
RPMI-8226 = test system: RPMI-8226
OVCAR-3 = test system: OVCAR-3
NCI-H522 = test system: NCI-H522
EKVX = test system: EKVX
ACHN = test system: ACHN
HCT-116 = test system: HCT-116
SK-MEL-2 = test system: SK-MEL-2
SK-MEL-5 = test system: SK-MEL-5
M14 = test system: M14
OVCAR-8 = test system: OVCAR-8
MDA-MB-231 = test system: MDA-MB-231
MDA-MB-435 = test system: MDA-MB-435
Hs-578T = test system: Hs-578T

Structure (SMILES)	GI50 (HCT-15) [µM]	GI50 (A549)	GI50 (SW-620)	GI50 (UO-31)	GI50 (HT-29)	GI50 (SN12C)	GI50 (RPMI-8226)	GI50 (OVCAR-3)	GI50 (NCI-H522)	GI50 (EKVX)	GI50 (ACHN)	GI50 (HCT-116)	GI50 (SK-MEL-2)	GI50 (SK-MEL-5)	GI50 (M14)	GI50 (OVCAR-8)	GI50 (MDA-MB-231)	GI50 (MDA-MB-435)	GI50 (Hs-578T)
CCCCCCCCCCCC(=O)OCCOCCOCCOCCOCCOCc1ccc(OC)cc1	> 100	> 100 µM (inactive)	> 100 µM (inactive)	> 100 µM (inactive)	> 100 µM (inactive)	> 100 µM (inactive)	> 100 µM (inactive)	> 100 µM (inactive)	> 100 µM (inactive)	> 100 µM (inactive)	> 100 µM (inactive)	> 100 µM (inactive)	> 100 µM (inactive)	> 100 µM (inactive)	> 100 µM (inactive)	> 100 µM (inactive)			
COc1ccc(C(=O)C(c2ccc(OC)cc2)C2(O)C(=O)Nc3c2ccc(Cl)c3C)cc1 (centres undefined)	> 100	> 100 µM (inactive)	> 100 µM (inactive)	64.6 µM (inactive)	> 100 µM (inactive)	> 100 µM (inactive)	> 100 µM (inactive)	> 100 µM (inactive)	> 100 µM (inactive)	> 100 µM (inactive)	> 100 µM (inactive)	> 100 µM (inactive)	> 100 µM (inactive)	> 100 µM (inactive)	> 100 µM (inactive)	> 100 µM (inactive)			
Cc1c2oc3c(C)cc(F)c(C(=O)NC4C(=O)NC(C(C)C)C(=O)N5CCCC5C(=O)N(C)CC(=O)N(C)C(C(C)C)C(=O)OC4C)c3nc-2c(C(=O)NC2C(=O)NC(C(C)C)C(=O)N3CCCC3C(=O)N(C)CC(=O)N(C)C(C(C)C)C(=O)OC2C)c(N)c1=O (centres undefined)	0.0805	0.0148 µM (active)	0.00114 µM (active)	0.521 µM (active)	0.00586 µM (active)	0.0303 µM (active)	< 0.001 µM (active)	0.0336 µM (active)	0.00188 µM (active)	1.75 µM (inactive)	0.0832 µM (active)	0.01 µM (active)	0.01 µM (active)	0.0142 µM (active)	0.0826 µM (active)	0.221 µM (active)	0.647 µM (active)	0.00757 µM (active)	0.298 µM (active)
CC(C)(C)C(=O)OCC(COC(=O)C(C)(C)C)[N+](=O)[O-]	> 100	> 100 µM (inactive)	> 100 µM (inactive)	> 100 µM (inactive)	> 100 µM (inactive)	> 100 µM (inactive)	45.3 µM (inactive)	> 100 µM (inactive)	19.1 µM (inactive)	> 100 µM (inactive)	> 100 µM (inactive)	> 100 µM (inactive)	> 100 µM (inactive)		> 100 µM (inactive)	> 100 µM (inactive)			
CN1CCN(Cn2nc(COc3ccccc3Cl)n(/N=C/c3ccc(-c4ccc(Cl)cc4Cl)o3)c2=S)CC1	24.2		16.1 µM (inactive)	33.2 µM (inactive)	19.5 µM (inactive)		29.2 µM (inactive)	21.7 µM (inactive)	26.2 µM (inactive)	39.4 µM (inactive)		18.5 µM (inactive)	22.4 µM (inactive)	24.8 µM (inactive)	28.8 µM (inactive)	27 µM (inactive)	26.4 µM (inactive)	24.8 µM (inactive)	84.1 µM (inactive)
COc1ccc(/C=C2\N=C3NC(=O)C(N4CCOCC4)=C(N)N3C2=O)cc1	> 100	> 100 µM (inactive)	> 100 µM (inactive)	> 100 µM (inactive)	> 100 µM (inactive)	> 100 µM (inactive)	> 100 µM (inactive)		75.3 µM (inactive)	69.7 µM (inactive)	75.9 µM (inactive)	> 100 µM (inactive)		> 100 µM (inactive)	> 100 µM (inactive)	> 100 µM (inactive)	> 100 µM (inactive)	> 100 µM (inactive)	35.7 µM (inactive)
CCOC(=O)/C(C(=S)NCc1ccccc1)=C(/N)N1CCCC1	> 100	> 100 µM (inactive)	> 100 µM (inactive)	56.9 µM (inactive)	> 100 µM (inactive)	> 100 µM (inactive)	> 100 µM (inactive)	> 100 µM (inactive)	> 100 µM (inactive)	> 100 µM (inactive)	> 100 µM (inactive)	> 100 µM (inactive)	> 100 µM (inactive)	> 100 µM (inactive)	> 100 µM (inactive)	> 100 µM (inactive)	> 100 µM (inactive)	> 100 µM (inactive)	> 100 µM (inactive)
N#C/C(=C\c1ccccc1F)C(=O)c1ccccc1	> 100	> 100 µM (inactive)	> 100 µM (inactive)	> 100 µM (inactive)	> 100 µM (inactive)	> 100 µM (inactive)	> 100 µM (inactive)	> 100 µM (inactive)	> 100 µM (inactive)	> 100 µM (inactive)	> 100 µM (inactive)	> 100 µM (inactive)	> 100 µM (inactive)	> 100 µM (inactive)	> 100 µM (inactive)	> 100 µM (inactive)			
